Structures are written as SMILES. Values after ≈ are worked out from the molar mass of the structure shown. Where only a bound is given, the exact number is not on record here.

For the data set the following is noted: buffer; pH 7.4; 200.0 µM.
In general, solubility (kinetic) refers to the concentration staying in solution when a stock, usually in DMSO, is diluted into the medium. Compound `CCOC(=O)c1sc(NC(=O)CSC(=S)N2CCOCC2)nc1C` yielded a solubility (kinetic) of 0.6 µg/mL (≈ 1.54 µM).

The compound `CCOC(=O)C(=CNc1ccc2c(c1)c1ccccc1n2CC)C(=O)OCC` gave a solubility (kinetic) of under 0.4 µg/mL.

As to `CCN(C(=O)CCCCC(=O)N(CC)c1ccccc1)c1ccccc1`, the solubility (kinetic) is over 52.9 µg/mL.

As for `CC(C)CCc1c(O)nc(SCC(C)C)[nH]c1=O`, the kinetic solubility was over 40.6 µg/mL.

Regarding `O=C1CCCN1c1ccc(N2CCCC2=O)cc1`, the kinetic solubility was over 36.6 µg/mL.

Turning to `Cc1ccsc1C(=O)OCC(=O)NCCCc1ccccc1`, the solubility (kinetic) came out at 6.2 µg/mL (≈ 19.5 µM).

For the compound `O=C(CN1CCCC1)Nc1ccc([N+](=O)[O-])cc1Cl`, the solubility (kinetic) was found to be 36.2 µg/mL (≈ 128 µM). Compared with the last compound, the solubility kinetic is about 5.8-fold higher.

Compound `N#Cc1c(N2CCNCC2)nc(-c2ccco2)c2c1CCCC2` displayed a solubility (kinetic) of over 46.3 µg/mL.

Turning to `CC(=O)Nc1ccc(S(=O)(=O)N2CCN3CCCC3C2)cc1` (stereo unspecified), the kinetic solubility was over 48.5 µg/mL.

Compound `Cn1cccc1C1C(C#N)=C(N)OC2=C1C(=O)CCC2` (stereo unspecified) registered a solubility (kinetic) of over 40.4 µg/mL.

Regarding `COc1ccc(NC(=O)C2C3CCC(O3)C2C(=O)O)cc1OC` (stereo unspecified), the solubility (kinetic) was over 48.2 µg/mL.

In turn, `Cc1cccn2c(=O)nc(SCC(=O)NC3CCCCC3)nc12` had a kinetic solubility of over 49.9 µg/mL.

For the compound `COc1ccc(S(=O)(=O)NC2CC2)cc1Br`, the solubility (kinetic) was over 45.9 µg/mL.

On to `Br.Nc1nc2c(s1)CCc1ccccc1-2`, for which the kinetic solubility came out at 40.3 µg/mL.

For `CC(Oc1ccccc1Cl)C(=O)N1CCCN(C)CC1` (stereo unspecified), the solubility (kinetic) was over 44.5 µg/mL.

Compound `CC(=O)c1c(C)[nH]c(C(=O)NCc2ccccc2F)c1C` came in with a solubility (kinetic) of 41.6 µg/mL (≈ 144 µM).

Take `O=c1ccccn1CCOc1ccc(Cl)cc1`: the kinetic solubility is over 37.5 µg/mL.

With `CN1CCC2(CC1)NC(=O)c1ccccc1N2.Cl`, the kinetic solubility is over 40.2 µg/mL.

The compound `Cc1cc2cc(CNC(=O)Nc3ccccc3)ccc2[nH]1` had a kinetic solubility of 15.6 µg/mL (≈ 55.8 µM).

As to `Cc1ccc2[nH]cc(S(=O)(=O)c3ccc(F)cc3)c(=O)c2c1`, the kinetic solubility was found to be 5.5 µg/mL (≈ 17.3 µM). Against the preceding compound, the solubility kinetic is about 2.8-fold lower.

The compound `O=[N+]([O-])c1ccc(Cl)c(CN2CCN(c3ncccn3)CC2)c1` registered a solubility (kinetic) of 35.1 µg/mL (≈ 105 µM).

`CCOCCCn1c(SCC(=O)N2CCOCC2)nc2ccccc2c1=O` came in with a kinetic solubility of over 58.7 µg/mL.

The compound `CS(=O)(=O)N1CCN=C1SCc1cccc(F)c1` returned a kinetic solubility of 42.6 µg/mL (≈ 148 µM).

For the compound `O=C(CN1C(=O)C(=O)N(Cc2ccco2)C1=O)Nc1ccccc1`, the kinetic solubility was over 49.1 µg/mL.

Take `CN1CCN(CCC(=O)Nc2cccc(Br)c2)CC1`: the solubility (kinetic) was 42.6 µg/mL (≈ 131 µM).

As to `Cc1nc2ccc(NC(=O)c3ccc4ccccc4n3)cc2s1`, the solubility (kinetic) was under 0.2 µg/mL.

Take `Cc1cc(Cl)nc(Cl)c1C(=O)NCCc1ccccc1`: the kinetic solubility was over 46.4 µg/mL.

`CCc1ccccc1NC(=O)C1CCN(C(=O)c2cccs2)CC1` had a solubility (kinetic) of over 51.4 µg/mL.

In turn, `CC1=C(C(=O)OC(C)C)C(c2ccccc2)NC(=O)N1C` (stereo unspecified) gave a solubility (kinetic) of over 43.3 µg/mL.

Compound `CN1CCN(Cc2c(F)cccc2Cl)CC1` gave a kinetic solubility of 24.2 µg/mL (≈ 99.7 µM).

`CCc1cccc(NC(=O)Cn2cc(C=O)c3ccccc32)c1` displayed a solubility (kinetic) of 0.5 µg/mL (≈ 1.63 µM).

Turning to `COc1ccc2oc(-c3ccccc3)c(C(=O)N(C)C)c2c1`, the kinetic solubility was over 44.3 µg/mL.

`C=C(C)CCOC(=O)C(CC(=O)O)NCc1ccco1` (stereo unspecified) showed a solubility (kinetic) of over 42.2 µg/mL.

In turn, `Cc1ccccc1N1CCN(CCCN2C(=O)C3CCCCN3C2=O)CC1` (stereo unspecified) yielded a kinetic solubility of 40.7 µg/mL (≈ 110 µM).

As to `C1CCCCCC(NCCN2CCNCC2)CCCCC1`, the solubility (kinetic) is over 44.3 µg/mL.

As to `CCOc1ccccc1C(=O)Nc1ccc(NC(=O)c2ccccc2)cc1`, the kinetic solubility turned out to be 1.7 µg/mL (≈ 4.72 µM).

Compound `Cl.O=C(CN1CCCCC1)c1ccc2c(c1)OCO2` yielded a solubility (kinetic) of over 42.6 µg/mL.

`OCc1nc2ccccc2n1Cc1ccc(Cl)cc1`: the kinetic solubility was determined as 28.4 µg/mL (≈ 104 µM).

Regarding `Cc1cnc(C(=O)OCc2nc3ccsc3c(=O)[nH]2)cn1`, the kinetic solubility stood at 45.3 µg/mL (≈ 150 µM).

Compound `Cc1cccc(/C=C(\C(=O)O)c2ccc(S(=O)(=O)N3CCCC3)s2)c1` yielded a kinetic solubility of over 56.6 µg/mL.

Compound `O=C(O)CCC(=O)Nc1nc2ccc([N+](=O)[O-])cc2s1` registered a solubility (kinetic) of over 44.3 µg/mL.

`O=C(O)C(NS(=O)(=O)c1cccc2nsnc12)c1ccccc1` (stereo unspecified) had a solubility (kinetic) of 48.4 µg/mL (≈ 139 µM).

For the compound `CCC(C)c1ccccc1NC(=O)CN(CC)CC(=O)Nc1ccc2c(c1)OCCO2` (stereo unspecified), the kinetic solubility came to 38.3 µg/mL (≈ 90 µM).

Take `CCC(C(=O)Nc1ccc([N+](=O)[O-])cn1)c1ccccc1` (stereo unspecified): the kinetic solubility was determined as 39.3 µg/mL (≈ 138 µM).

`COc1ccc(NS(=O)(=O)c2cn(C)cn2)cc1OC` displayed a solubility (kinetic) of 32.9 µg/mL (≈ 111 µM).

For the compound `O=C(NCCN1CCOCC1)C1CC(=O)N(c2ccc(F)cc2)C1` (stereo unspecified), the solubility (kinetic) stood at 48.8 µg/mL (≈ 146 µM). The solubility kinetic values of the last two compounds are within 1.5-fold of each other.

Regarding `C=CCN(C(=O)Nc1ccc2c(c1)nc(C)n2C)c1ccccc1`, the solubility (kinetic) is over 48.1 µg/mL.

In turn, `Cc1c(C(=O)Nc2cccnc2)oc2ccc(Br)cc12` yielded a kinetic solubility of under 0.4 µg/mL.

With `CCC(=O)c1c(NC(CC)CO)cc(C)oc1=O` (stereo unspecified), the kinetic solubility is over 38 µg/mL.

`CC(Oc1cccnc1[N+](=O)[O-])C(=O)Nc1ccc(Cl)cn1` (stereo unspecified): the solubility (kinetic) was determined as 17 µg/mL (≈ 52.7 µM).

Consider `NC(=O)C1CCN(C(=O)/C=C/c2ccccc2[N+](=O)[O-])CC1`, for which the kinetic solubility was over 45.5 µg/mL.

Source of the values: PubChem BioAssay AID1996.
